Laboratory results taken from ChEMBL document CHEMBL2073758, “Agmatine is efficiently transported by non-neuronal monoamine transporters extraneuronal monoamine transporter (EMT) and organic cation transporter 2 (OCT2)” (J Pharmacol Exp Ther, 2003).

B1: Solute carrier family 22 member 3 (Homo sapiens) (protein)
chain: MPSFDEALQRVGEFGRFQRRVFLLLCLTGVTFAFLFVGVVFLGTQPDHYWCRGPSAAALAERCGWSPEEEWNRTAPASRGPEPPERRGRCQRYLLEAANDSASATSALSCADPLAAFPNRSAPLVPCRGGWRYAQAHSTIVSEFDLVCVNAWMLDLTQAILNLGFLTGAFTLGYAADRYGRIVIYLLSCLGVGVTGVVVAFAPNFPVFVIFRFLQGVFGKGTWMTCYVIVTEIVGSKQRRIVGIVIQMFFTLGIIILPGIAYFIPNWQGIQLAITLPSFLFLLYYWVVPESPRWLITRKKGDKALQILRRIAKCNGKYLSSNYSEITVTDEEVSNPSFLDLVRTPQMRKCTLILMFAWFTSAVVYQGLVMRLGIIGGNLYIDFFISGVVELPGALLILLTIERLGRRLPFAASNIVAGVACLVTAFLPEGIAWLRTTVATLGRLGITMAFEIVYLVNSELYPTTLRNFGVSLCSGLCDFGGIIAPFLLFRLAAVWLELPLIIFGILASICGGLVMLLPETKGIALPETVDDVEKLGSPHSCKCGRNKKTPVSRSHL
B2: Solute carrier family 22 member 2 (Rattus norvegicus) (protein)
chain: MSTVDDILEHIGEFHLFQKQTFFLLALLSGAFTPIYVGIVFLGFTPDHHCWSPGAAKLSQRCGWSQAEELNYTVPGLGPSDEASFLSQCMRYEVDWNQSTLDCVDPLSSLAADRNQLPLGPCEHGWVYNTPGSSIVTEFNLVCAHSWMLDLFQSVVNVGFFIGAMMIGYLADRFGRKFCLLVTILINAISGALMAISPNYAWMLVFRFLQGLVSKAGWLIGYILITEFVGLGYRRMVGICYQIAFTVGLLILAGVAYVIPNWRWLQFAVTLPNFCFLLYFWCIPESPRWLISQNKIVKAMKIIKHIAKKNGKSVPVSLQNLTPDEDAGKKLNPSFLDLVRTPQIRKHTLILMYNWFTSSVLYQGLIMHMGLAGDNIYLDFFYSALVEFPAAFIIILTIDRVGRRYPWAVSNMVAGAACLASVFIPDDLQWLKITIACLGRMGITMAYEMVCLVNAELYPTYIRNLGVLVCSSMCDIGGIITPFLVYRLTDIWMEFPLVVFAVVGLVAGALVLLLPETKGKALPETIEDAENMQRPRKKKEKRIYLQVKQADRPLS
B3: Solute carrier family 22 member 3 (Rattus norvegicus) (protein)
chain: MPTFDQALRKAGEFGRFQRRVFLLLCLTGVTFAFLFVGVVFLGSQPDYYWCRGPRATALAERCAWSPEEEWNLTTPELHVPAERRGQGHCHRYLLEDTNTSSELSCDPLAAFPNRSAPLVPCSGDWRYVETHSTIVSQFDLVCGNAWMLDLTQAILNLGFLAGAFTLGYAADRYGRLIVYLISCFGVGITGVVVAFAPNFSVFVIFRFLQGVFGKGAWMTCFVIVTEIVGSKQRRIVGIVIQMFFTLGIIILPGIAYFTPSWQGIQLAISLPSFLFLLYYWVVPESPRWLITRKQGEKALQILRRVAKCNGKHLSSNYSEITVTDEEVSNPSCLDLVRTPQMRKCTLILMFAWFTSAVVYQGLVMRLGLIGGNLYMDFFISGLVELPGALLILLTIERLGRRLPFAASNIVAGVSCLVTAFLPEGIPWLRTTVATLGRLGITMAFEIVYLVNSELYPTTLRNFGVSLCSGLCDFGGIIAPFLLFRLAAIWLELPLIIFGILASVCGGLVMLLPETKGIALPETVEDVEKLGSSQLHQCGRKKKTQVSTSNV
B4: Solute carrier family 22 member 2 (Homo sapiens) (protein)
chain: MPTTVDDVLEHGGEFHFFQKQMFFLLALLSATFAPIYVGIVFLGFTPDHRCRSPGVAELSLRCGWSPAEELNYTVPGPGPAGEASPRQCRRYEVDWNQSTFDCVDPLASLDTNRSRLPLGPCRDGWVYETPGSSIVTEFNLVCANSWMLDLFQSSVNVGFFIGSMSIGYIADRFGRKLCLLTTVLINAAAGVLMAISPTYTWMLIFRLIQGLVSKAGWLIGYILITEFVGRRYRRTVGIFYQVAYTVGLLVLAGVAYALPHWRWLQFTVSLPNFFFLLYYWCIPESPRWLISQNKNAEAMRIIKHIAKKNGKSLPASLQRLRLEEETGKKLNPSFLDLVRTPQIRKHTMILMYNWFTSSVLYQGLIMHMGLAGDNIYLDFFYSALVEFPAAFMIILTIDRIGRRYPWAASNMVAGAACLASVFIPGDLQWLKIIISCLGRMGITMAYEIVCLVNAELYPTFIRNLGVHICSSMCDIGGIITPFLVYRLTNIWLELPLMVFGVLGLVAGGLVLLLPETKGKALPETIEEAENMQRPRKNKEKMIYLQVQKLDIPLN

Legend:
[1] = biological target: T1, Solute carrier family 22 member 1 (Homo sapiens, UniProt O15245); experiment: (§1) TP_TRANSPORTER: uptake in OCT1-expressing 293 cells; format: functional, cell-based; settings: hek293
T1 sequence (O15245 whole entry): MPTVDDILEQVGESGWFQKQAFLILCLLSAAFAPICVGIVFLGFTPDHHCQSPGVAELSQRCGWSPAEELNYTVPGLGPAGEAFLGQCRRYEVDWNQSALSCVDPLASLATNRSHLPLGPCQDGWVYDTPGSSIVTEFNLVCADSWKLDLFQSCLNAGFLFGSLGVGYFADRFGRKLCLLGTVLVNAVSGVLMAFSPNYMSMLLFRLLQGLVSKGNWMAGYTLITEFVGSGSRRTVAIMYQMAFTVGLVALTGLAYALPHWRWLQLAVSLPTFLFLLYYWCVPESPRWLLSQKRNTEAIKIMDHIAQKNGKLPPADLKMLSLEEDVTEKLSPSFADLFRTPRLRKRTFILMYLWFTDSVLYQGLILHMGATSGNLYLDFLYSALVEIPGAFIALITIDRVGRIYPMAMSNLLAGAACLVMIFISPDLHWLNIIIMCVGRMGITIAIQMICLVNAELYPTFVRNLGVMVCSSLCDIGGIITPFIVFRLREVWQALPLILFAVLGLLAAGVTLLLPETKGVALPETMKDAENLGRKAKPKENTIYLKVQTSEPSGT

[2] = biological target: T2, Solute carrier family 22 member 1 (Rattus norvegicus, UniProt Q63089); experiment: as §1; format: functional, cell-based; settings: human, hek293
T2 sequence (Q63089 whole entry): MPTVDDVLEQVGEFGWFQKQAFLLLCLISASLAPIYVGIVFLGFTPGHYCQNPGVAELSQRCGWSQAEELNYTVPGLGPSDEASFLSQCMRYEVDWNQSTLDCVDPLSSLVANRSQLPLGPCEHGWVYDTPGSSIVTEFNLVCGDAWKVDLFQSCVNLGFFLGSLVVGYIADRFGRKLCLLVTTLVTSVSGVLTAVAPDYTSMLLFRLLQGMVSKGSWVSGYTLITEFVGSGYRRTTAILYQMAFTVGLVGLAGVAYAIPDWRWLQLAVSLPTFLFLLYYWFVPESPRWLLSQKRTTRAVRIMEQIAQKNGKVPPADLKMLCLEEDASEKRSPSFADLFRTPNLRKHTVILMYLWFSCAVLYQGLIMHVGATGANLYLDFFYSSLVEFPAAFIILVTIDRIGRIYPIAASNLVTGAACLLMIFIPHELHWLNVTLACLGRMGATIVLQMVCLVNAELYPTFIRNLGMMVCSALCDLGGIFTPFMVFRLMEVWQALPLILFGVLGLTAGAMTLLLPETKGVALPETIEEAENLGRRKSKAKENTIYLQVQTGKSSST

[3] = biological target: T1, Solute carrier family 22 member 1; experiment: (§2) TP_TRANSPORTER: inhibition of uptake of 0.1 uM MPP+ in OCT1-expressing 293 cells; format: functional, cell-based, HEK293
[4] = biological target: T2, Solute carrier family 22 member 1; experiment: as §2; format: functional, cell-based, HEK293
[5] = biological target: T3, Solute carrier family 22 member 2 (Homo sapiens, UniProt O15244); experiment: (§3) TP_TRANSPORTER: uptake in OCT2-expressing 293 cells; format: functional, cell-based; settings: hek293
T3 sequence (O15244 whole entry): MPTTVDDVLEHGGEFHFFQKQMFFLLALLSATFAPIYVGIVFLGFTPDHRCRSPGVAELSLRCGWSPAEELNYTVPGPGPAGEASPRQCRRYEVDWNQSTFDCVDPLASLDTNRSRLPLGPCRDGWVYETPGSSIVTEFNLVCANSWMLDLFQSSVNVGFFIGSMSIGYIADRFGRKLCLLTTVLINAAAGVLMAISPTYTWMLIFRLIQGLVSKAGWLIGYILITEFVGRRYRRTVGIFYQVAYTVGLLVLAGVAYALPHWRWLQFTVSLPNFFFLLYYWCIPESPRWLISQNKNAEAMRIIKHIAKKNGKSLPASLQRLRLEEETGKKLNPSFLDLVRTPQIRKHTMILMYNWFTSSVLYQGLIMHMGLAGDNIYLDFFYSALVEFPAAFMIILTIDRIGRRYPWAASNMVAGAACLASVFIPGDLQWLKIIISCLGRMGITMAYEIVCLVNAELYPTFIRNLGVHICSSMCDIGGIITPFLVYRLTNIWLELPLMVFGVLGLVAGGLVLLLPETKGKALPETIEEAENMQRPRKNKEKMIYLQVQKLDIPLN

[6] = biological target: T4, Solute carrier family 22 member 2 (Rattus norvegicus, UniProt Q9R0W2); experiment: as §3; format: functional, cell-based; settings: human, hek293
T4 sequence (Q9R0W2 whole entry): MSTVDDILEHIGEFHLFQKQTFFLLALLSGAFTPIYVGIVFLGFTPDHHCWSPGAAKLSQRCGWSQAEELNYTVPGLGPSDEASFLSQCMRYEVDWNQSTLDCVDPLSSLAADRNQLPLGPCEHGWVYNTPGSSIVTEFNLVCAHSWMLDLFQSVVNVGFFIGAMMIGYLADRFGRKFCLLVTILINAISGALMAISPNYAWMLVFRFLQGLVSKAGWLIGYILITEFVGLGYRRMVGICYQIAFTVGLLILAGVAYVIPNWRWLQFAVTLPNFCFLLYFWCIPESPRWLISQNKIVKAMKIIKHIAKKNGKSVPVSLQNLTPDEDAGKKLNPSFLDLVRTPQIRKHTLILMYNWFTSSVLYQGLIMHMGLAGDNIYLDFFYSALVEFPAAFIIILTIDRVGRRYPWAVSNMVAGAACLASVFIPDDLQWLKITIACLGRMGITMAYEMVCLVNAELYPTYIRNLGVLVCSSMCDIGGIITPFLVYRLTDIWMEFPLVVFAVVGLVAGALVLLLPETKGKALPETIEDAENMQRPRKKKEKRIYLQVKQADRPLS

[7] = biological target: T5, Solute carrier family 22 member 3 (Rattus norvegicus, UniProt O88446); experiment: (§4) TP_TRANSPORTER: uptake in OCT3-expressing 293 cells; format: functional, cell-based; settings: human, hek293
T5 sequence (O88446 whole entry): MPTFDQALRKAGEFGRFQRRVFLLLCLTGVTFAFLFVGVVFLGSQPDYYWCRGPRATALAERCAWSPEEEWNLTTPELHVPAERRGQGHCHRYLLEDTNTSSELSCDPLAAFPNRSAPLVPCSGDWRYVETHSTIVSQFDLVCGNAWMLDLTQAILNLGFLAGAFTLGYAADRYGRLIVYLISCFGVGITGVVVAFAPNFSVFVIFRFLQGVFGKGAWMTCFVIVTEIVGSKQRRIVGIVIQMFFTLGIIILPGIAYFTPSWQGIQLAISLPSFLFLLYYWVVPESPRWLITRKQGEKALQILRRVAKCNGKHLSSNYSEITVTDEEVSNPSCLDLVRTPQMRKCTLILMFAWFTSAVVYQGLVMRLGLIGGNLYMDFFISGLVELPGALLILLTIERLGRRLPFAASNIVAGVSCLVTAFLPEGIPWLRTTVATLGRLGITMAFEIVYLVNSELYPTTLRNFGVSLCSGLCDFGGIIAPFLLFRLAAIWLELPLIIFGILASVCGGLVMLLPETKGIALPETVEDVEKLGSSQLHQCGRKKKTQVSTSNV

[8] = substrate: N=C(N)NCCCCN; experiment: as §4; format: functional, cell-based, HEK293
[9] = substrate: N=C(N)NCCCCN; experiment: as §3; format: functional, cell-based, HEK293

Molecule	Activity [1]	Activity [2]	Km [8]	Km [9]	other results
N=C(N)NCCCCN [AGMATINE]	substrate []	substrate []	–	–	Ki [3]: 24 mM; Ki [4]: 8.6 mM
C[n+]1ccc(-c2ccccc2)cc1	32 µM	substrate []	–	–	Activity [5]: 7.8 µM; Activity [6]: substrate []; Activity [7]: substrate []
B1	–	–	2500 µM	–	–
B2	–	–	–	950 µM	–
B3	–	–	900 µM	–	–
B4	–	–	–	1400 µM	–
